Results taken from patent US11103488B2, “Methods of treating autoimmune, respiratory and inflammatory disorders by inhalation of roflumilast N-oxide” (Incozen Therapeutics Pvt. Ltd., priority 2013, dated 2021).

Experiments:
[1] = tested on: neutrophil infiltration; test: Acute cigarette smoke induced cell infiltration, neutrophils; type: in vivo, female Balb/c mice; settings: for Percent inhibition in neutrophil infiltration: intranasal, day 1 to day 4
Protocol: Animals were acclimatized for seven days prior to the start of the experiment. The animals were randomly distributed to various groups based on their body weight. For oral administration of roflumilast and for intranasal administration of roflumilast N-oxide, roflumilast or roflumilast N-oxide were prepared as a suspension in a suitable vehicle. On day 1, mice were administered roflumilast N-oxide or roflumilast and after 1 hour, the animals were placed in a whole body exposure box. On day 1 and day 2, the mice were exposed to the mainstream smoke of 6 cigarettes, and 8 cigarettes on day 3 and day 4. Exposure to the smoke of each cigarette lasted for 10 minutes (cigarettes were completely burned in the first two minutes and followed by an air flow with animal ventilator, then 20 minutes exposure to fresh room air). After every second cigarette an additional break of 20 minutes with exposure to fresh room air was conducted. Control animals were exposed to room air chamber. From day 1 to day 4, the animals were administered roflumilast N-oxide or roflumilast. On day 5, 24 hours after the last cigarette smoke (CS) exposure, the animals were exsanguinated under anaesthesia, the trachea were cannulated and the lungs were lavaged with 0.5-ml aliquots of heparinised PBS (1 unit/ml) four times through tracheal cannula (total volume 2 ml). Bronchioalveolar (BAL) collected was stored at 2-8° C. until assayed for total cell and differential leukocyte count. BAL fluid was centrifuged (500×g for 10 minutes) and the resulting cell pellet was resuspended in 0.5 ml of heparinised saline. The total number of white blood cells was determined in BAL fluid and adjusted to 1×10^6 cell/ml. Differential cell count was calculated manually by diff-quick staining. Forty microliters of the cell suspension was centrifuged using cytospin 3 to prepare a cell smear. The cell smear was stained with a blood staining solution for differentiation and microscopically observed to identify cell type according to their morphological characteristics. The number of each cell type among 300 white blood cells in the cell smear were determined and expressed as a percentage, and the number of neutrophils and macrophages in each BAL fluid were calculated.
Roflumilast and roflumilast N-oxide as a suspension in polysorbate 80 (1% v/v) and methyl cellulose (MC) (0.5% w/v) were used for oral and intranasal administration respectively.

[2] = Particle size distribution after micronization (Alpine Spiral Jet Mill); type: physicochemical; settings: micronized
Text: Laser diffraction measurement of particle size can use a dry method (wherein a suspension of the compound/salt in an airflow crosses the laser beam) or a wet method (wherein a suspension of the compound/salt in a liquid dispersing medium, such as isooctane (e.g. if compound is soluble in isooctane) or 0.1% Tween 80 in water, crosses the laser beam). With laser diffraction, particle size may be measured, for example, with a Malvern Mastersizer or Sympatec apparatus. For example, particle size measurement and/or analysis by laser diffraction can use any or all of (preferably all of) the following: a Malvern Mastersizer longbed version, a dispersing medium of 0.1% Tween 80 in water, a stir rate of ca. 1500 rpm, ca. 3 mins sonification prior to final dispersion and analysis, a 300 RF (Reverse Fourier) lens, and/or the Fraunhofer calculation with Malvern software. Unless specified otherwise, all d50 and d90 measurements are measured by laser diffraction using a wet method.
Provided below is an exemplary method used for micronization of roflumilast N-Oxide using an Alpine Spiral Jet Mill (HOSOKAWA). The process involved the following steps • 15 gm of Roflumilast N-oxide was weighed. • Main knob for compressed air supply was opened. • Adjusted venture pressure at 6.0 bar and ring pressure at 0.5 bar. • Roflumilast N-oxide was added at a feed rate of ˜200 mg/min manually through the hopper. • After completion of micronization, main air supply knob was turned off and micronized roflumilast N-oxide was collected

O=C(Nc1c(Cl)c[n+]([O-])cc1Cl)c1ccc(OC(F)F)c(OCC2CC2)c1 [Roflumilast N-oxide]
ED50 ([1]; Mus musculus, Neutrophil, inhaled or nasal, intranasal administration, read-out: 50% inhibition (ED50) dose, neutrophil infiltration): 0.038 mg/kg | Percent inhibition in neutrophil infiltration ([1]; 0.003 mg/kg): 26.60% | Percent inhibition in neutrophil infiltration ([1]; 0.03 mg/kg): 59.28% | Percent inhibition in neutrophil infiltration ([1]; 0.3 mg/kg): 66.49% | Percent inhibition in neutrophil infiltration ([1]; 3 mg/kg): 72.08% | Particle Size Distribution (PSD), D10 [2]: 0.777 μm | Particle Size Distribution (PSD), D50 [2]: 1.564 μm | Particle Size Distribution (PSD), D90 [2]: 3.021 μm
